Assay results as given in PubChem BioAssay (NCI).
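Where inhibition never reached the appropriate level, the endpoint shown equals the highest concentration tested. Otherwise, values were interpolated linearly from a five-concentration, 48-hour dose response in 96-well plates. Here, GI50 denotes the concentration required for 50% inhibition of growth. TGI marks complete inhibition of growth.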

Assays:
Experiment in all cases: NCI anticancer screen, dose series, 48 h
786-0 renal = system: 786-0 renal
A498 renal = system: A498 renal
A549 NSCLC = system: A549 NSCLC
ACHN renal = system: ACHN renal
BT-549 breast = system: BT-549 breast
CAKI-1 renal = system: CAKI-1 renal
CCRF-CEM leukemia = system: CCRF-CEM leukemia
COLO 205 colon = system: COLO 205 colon
DU-145 prostate = system: DU-145 prostate
EKVX NSCLC = system: EKVX NSCLC
HCC-2998 colon = system: HCC-2998 colon
HCT-116 colon = system: HCT-116 colon
HCT-15 colon = system: HCT-15 colon
HL-60(TB) leukemia = system: HL-60(TB) leukemia
HOP-62 NSCLC = system: HOP-62 NSCLC
HOP-92 NSCLC = system: HOP-92 NSCLC
HS 578T breast = system: HS 578T breast
HT29 colon = system: HT29 colon
IGROV1 ovarian = system: IGROV1 ovarian
K-562 leukemia = system: K-562 leukemia
LOX IMVI melanoma = system: LOX IMVI melanoma
M14 melanoma = system: M14 melanoma
MALME-3M melanoma = system: MALME-3M melanoma
MCF7 breast = system: MCF7 breast
MDA-MB-231 breast = system: MDA-MB-231 breast
MDA-MB-435 = system: MDA-MB-435
MOLT-4 leukemia = system: MOLT-4 leukemia
NCI-H226 lung = system: NCI-H226 lung
NCI-H23 lung = system: NCI-H23 lung
NCI-H460 lung = system: NCI-H460 lung
NCI-H522 lung = system: NCI-H522 lung
NCI/ADR-RES ovarian = system: NCI/ADR-RES ovarian
OVCAR-3 ovarian = system: OVCAR-3 ovarian
OVCAR-4 ovarian = system: OVCAR-4 ovarian
OVCAR-5 ovarian = system: OVCAR-5 ovarian
OVCAR-8 ovarian = system: OVCAR-8 ovarian
PC-3 prostate = system: PC-3 prostate
RPMI-8226 leukemia = system: RPMI-8226 leukemia
RXF 393 renal = system: RXF 393 renal
SF-295 CNS = system: SF-295 CNS
SF-539 CNS = system: SF-539 CNS
SK-MEL-2 melanoma = system: SK-MEL-2 melanoma
SK-MEL-28 melanoma = system: SK-MEL-28 melanoma
SK-MEL-5 melanoma = system: SK-MEL-5 melanoma
SK-OV-3 ovarian = system: SK-OV-3 ovarian
SN12C renal = system: SN12C renal
SNB-19 CNS = system: SNB-19 CNS
SNB-75 CNS = system: SNB-75 CNS
SR leukemia = system: SR leukemia
T-47D breast = system: T-47D breast
TK-10 renal = system: TK-10 renal
U251 CNS = system: U251 CNS
UACC-257 melanoma = system: UACC-257 melanoma
UACC-62 melanoma = system: UACC-62 melanoma
UO-31 renal = system: UO-31 renal

Cc1cc(O)c(C2=NN(c3ccc(S(N)(=O)=O)cc3)C(c3ccccc3Cl)C2)cc1Cl (stereo not given)
GI50 (786-0 renal): 2.25 µM
TGI (786-0 renal): 4.52 µM
GI50 (A498 renal): 5.01 µM
TGI (A498 renal): 20.5 µM
GI50 (A549 NSCLC): 3.82 µM
TGI (A549 NSCLC): 19.3 µM
GI50 (ACHN renal): 3.34 µM
TGI (ACHN renal): 11 µM
GI50 (BT-549 breast): 2.16 µM
TGI (BT-549 breast): 4.74 µM
GI50 (CAKI-1 renal): 1.78 µM
TGI (CAKI-1 renal): 3.99 µM
GI50 (CCRF-CEM leukemia): 4.81 µM
TGI (CCRF-CEM leukemia): > 100 µM
GI50 (COLO 205 colon): 1.81 µM
TGI (COLO 205 colon): 3.31 µM
GI50 (DU-145 prostate): 2.01 µM
TGI (DU-145 prostate): 3.85 µM
GI50 (EKVX NSCLC): 1.95 µM
TGI (EKVX NSCLC): 4.6 µM
GI50 (HCC-2998 colon): 2.1 µM
TGI (HCC-2998 colon): 3.91 µM
GI50 (HCT-116 colon): 1.76 µM
TGI (HCT-116 colon): 3.15 µM
GI50 (HCT-15 colon): 3.69 µM
TGI (HCT-15 colon): 16.6 µM
GI50 (HL-60(TB) leukemia): 3.44 µM
TGI (HL-60(TB) leukemia): > 100 µM
GI50 (HOP-62 NSCLC): 2.03 µM
TGI (HOP-62 NSCLC): 4.16 µM
GI50 (HOP-92 NSCLC): 1.94 µM
TGI (HOP-92 NSCLC): 6.32 µM
GI50 (HS 578T breast): 3.28 µM
TGI (HS 578T breast): > 100 µM
GI50 (HT29 colon): 1.92 µM
TGI (HT29 colon): 3.63 µM
GI50 (IGROV1 ovarian): 2.58 µM
TGI (IGROV1 ovarian): 14 µM
GI50 (K-562 leukemia): 3.26 µM
TGI (K-562 leukemia): > 100 µM
GI50 (LOX IMVI melanoma): 1.78 µM
TGI (LOX IMVI melanoma): 3.21 µM
GI50 (M14 melanoma): 1.85 µM
TGI (M14 melanoma): 3.43 µM
GI50 (MALME-3M melanoma): 2.62 µM
TGI (MALME-3M melanoma): 6.46 µM
GI50 (MCF7 breast): 1.75 µM
TGI (MCF7 breast): 3.33 µM
GI50 (MDA-MB-231 breast): 2.14 µM
TGI (MDA-MB-231 breast): 4.52 µM
GI50 (MDA-MB-435): 1.85 µM
TGI (MDA-MB-435): 3.92 µM
GI50 (MOLT-4 leukemia): 4.04 µM
TGI (MOLT-4 leukemia): > 100 µM
GI50 (NCI-H226 lung): 3.02 µM
TGI (NCI-H226 lung): 9.44 µM
GI50 (NCI-H23 lung): 1.79 µM
TGI (NCI-H23 lung): 3.58 µM
GI50 (NCI-H460 lung): 2.16 µM
TGI (NCI-H460 lung): 4.21 µM
GI50 (NCI-H522 lung): 1.89 µM
TGI (NCI-H522 lung): 3.97 µM
GI50 (NCI/ADR-RES ovarian): 2.7 µM
TGI (NCI/ADR-RES ovarian): 6.85 µM
GI50 (OVCAR-3 ovarian): 1.89 µM
TGI (OVCAR-3 ovarian): 3.58 µM
GI50 (OVCAR-4 ovarian): 2.73 µM
TGI (OVCAR-4 ovarian): 8.48 µM
GI50 (OVCAR-5 ovarian): 1.74 µM
TGI (OVCAR-5 ovarian): 3.3 µM
GI50 (OVCAR-8 ovarian): 2.94 µM
TGI (OVCAR-8 ovarian): 11.2 µM
GI50 (PC-3 prostate): 1.58 µM
TGI (PC-3 prostate): 3.32 µM
GI50 (RPMI-8226 leukemia): 2.98 µM
TGI (RPMI-8226 leukemia): 8.35 µM
GI50 (RXF 393 renal): 3.09 µM
TGI (RXF 393 renal): 8.22 µM
GI50 (SF-295 CNS): 1.59 µM
TGI (SF-295 CNS): 3.18 µM
GI50 (SF-539 CNS): 1.79 µM
TGI (SF-539 CNS): 3.25 µM
GI50 (SK-MEL-2 melanoma): 11.9 µM
TGI (SK-MEL-2 melanoma): 31 µM
GI50 (SK-MEL-28 melanoma): 3.39 µM
TGI (SK-MEL-28 melanoma): 12.3 µM
GI50 (SK-MEL-5 melanoma): 3.85 µM
TGI (SK-MEL-5 melanoma): 12.3 µM
GI50 (SK-OV-3 ovarian): 3.63 µM
TGI (SK-OV-3 ovarian): 10.4 µM
GI50 (SN12C renal): 2.55 µM
TGI (SN12C renal): 6.32 µM
GI50 (SNB-19 CNS): 3.54 µM
TGI (SNB-19 CNS): 16.3 µM
GI50 (SNB-75 CNS): 2.23 µM
TGI (SNB-75 CNS): 8.83 µM
GI50 (SR leukemia): 2.97 µM
TGI (SR leukemia): > 100 µM
GI50 (T-47D breast): 2.81 µM
TGI (T-47D breast): 10.3 µM
GI50 (TK-10 renal): 2.64 µM
TGI (TK-10 renal): 5.86 µM
GI50 (U251 CNS): 2.25 µM
TGI (U251 CNS): 5.02 µM
GI50 (UACC-257 melanoma): 11.8 µM
TGI (UACC-257 melanoma): 79.6 µM
GI50 (UACC-62 melanoma): 3.71 µM
TGI (UACC-62 melanoma): 14.4 µM
GI50 (UO-31 renal): 2.66 µM
TGI (UO-31 renal): 16.2 µM
